{"source": "ChEMBL document CHEMBL6153040", "about": "“Discovery of the salicylaldehyde-based compound DDO-02267 as a lysine-targeting covalent inhibitor of ALKBH5” (Eur J Med Chem, 2025)", "key": {"MOLM-13 [1]": {"system": "MOLM-13", "test": "Induction of cell cycle arrest in human MOLM-13 cells assessed as accumulation of cells at S phase at 80 uM incubated for 72 hrs by flow cytometry analysis (reference value: 17.47 %)", "assay_type": "functional"}, "[2]": {"test": "Selectivity ratio of IC50 for ALKBH3 (unknown origin) to IC50 for ALKBH5 (66 to 292 residues) (unknown origin) extracted from Escherichia coli BL21 (DE3) cells by restriction enzyme digestion assay"}, "MOLM-13 [3]": {"system": "MOLM-13", "test": "Induction of apoptosis in human MOLM-13 cells assessed as early apoptotic cells at 80 uM incubated for 72 hrs by Annexin V FITC/PI staining based flow cytometry analysis (reference value: 4.32%)", "assay_type": "functional"}, "[4]": {"biological_target": "T1, Alpha-ketoglutarate-dependent dioxygenase alkB homolog 3 (Homo sapiens, UniProt Q96Q83)", "T1 sequence (Q96Q83 whole entry)": "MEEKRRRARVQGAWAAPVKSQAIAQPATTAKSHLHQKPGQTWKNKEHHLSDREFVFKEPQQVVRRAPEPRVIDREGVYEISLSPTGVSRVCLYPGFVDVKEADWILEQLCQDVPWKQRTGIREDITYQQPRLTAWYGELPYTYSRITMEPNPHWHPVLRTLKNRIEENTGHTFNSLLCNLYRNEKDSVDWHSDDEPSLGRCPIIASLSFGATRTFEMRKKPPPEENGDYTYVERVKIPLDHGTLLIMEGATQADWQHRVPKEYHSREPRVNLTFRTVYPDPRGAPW", "test": "Inhibition of ALKBH3 (unknown origin) by restriction enzyme digestion method"}, "RNA demethylase ALKBH5 [5]": {"biological_target": "T2, RNA demethylase ALKBH5 (Homo sapiens, UniProt Q6P6C2)", "T2 sequence (Q6P6C2 2-394 limits assumed)": "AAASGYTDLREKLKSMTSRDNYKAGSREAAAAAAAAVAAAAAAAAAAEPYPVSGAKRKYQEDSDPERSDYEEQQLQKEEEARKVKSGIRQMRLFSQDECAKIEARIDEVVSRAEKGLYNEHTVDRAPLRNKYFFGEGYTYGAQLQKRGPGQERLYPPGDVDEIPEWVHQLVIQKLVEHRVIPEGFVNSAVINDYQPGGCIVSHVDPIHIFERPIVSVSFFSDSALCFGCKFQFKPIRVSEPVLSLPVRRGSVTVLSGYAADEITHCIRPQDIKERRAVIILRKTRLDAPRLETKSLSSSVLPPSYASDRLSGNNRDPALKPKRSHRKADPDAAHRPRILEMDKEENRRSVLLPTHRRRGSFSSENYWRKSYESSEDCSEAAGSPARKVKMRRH", "test": "Induction of thermal stabilization of ALKBH5 in human MOLM-13 cells at 20 uM incubated for 30 min and measured after 3 mins incubation under 45 to 65 degreeC by […] assay", "assay_type": "cell-based", "conditions": "time 33.0 min"}, "RNA demethylase ALKBH5 [6]": {"biological_target": "T2, RNA demethylase ALKBH5", "test": "Binding affinity to ALKBH5 in human MOLM-13 cells assessed as protection of pronase-mediated protein degradation at 12.5 to 50 uM preincubated for 30 mins followed by protease addition and measured after 10 mins by DARTS method", "assay_type": "cell-based", "conditions": "dose 12.5-50 µM, time 40.0 min"}}, "note": "Calls of active or inactive are those of the source. No cut-off for these calls is given here."}
{"smiles": "O=Cc1cc(S(=O)(=O)NC(=O)c2cc(C(=O)O)ccn2)c2ccccc2c1O", "values": [{"measurement": "Activity", "setting": "MOLM-13 [1]", "result": 4.11, "unit": "%"}, {"measurement": "Ratio IC50", "setting": "[2]", "result": 30}, {"measurement": "Activity", "setting": "MOLM-13 [3]", "result": 9.16, "unit": "%"}, {"measurement": "IC50", "setting": "[4]", "result": 75.4, "unit": "µM"}, {"measurement": "Activity", "setting": "RNA demethylase ALKBH5 [5]", "result": "Active"}, {"measurement": "Activity", "setting": "RNA demethylase ALKBH5 [6]", "result": "Active"}]}
